From patent US6017934A, “Thrombin inhibitors” (Merck & Co., Inc., priority 1998, dated 2000) come the findings set out here.

Residues, ends and D or L forms follow the SMILES beside them.

Common to all, as to type: biochemical
Experiment [1] concerns the target T1, human a-thrombin (Homo sapiens, UniProt P00734). In words: In vitro thrombin inhibition (Ki). The settings on record: 25° C., 0.05 M TRIS pH 7.4, 0.15 M NaCl, 0.1% PEG; read-out: trombin Ki. On the procedure:
(§1) Assays of human a-thrombin and human trypsin were performed at 25° C. in 0.05 M TRIS buffer pH 7.4, 0.15 M NaCl, 0.1% PEG. Trypsin assays also contained 1 mM CaCl2.
(§2) Concentrations of stock solutions of Z-GPR-afc were determined from measurements of absorbance at 380 nm of the 7-amino-4-trifluoromethyl coumarin produced upon complete hydrolysis of an aliquot of the stock solution by thrombin.
Times required to achieve equilibration between enzyme and inhibitor were determined in control experiments. Initial velocities of product formation in the absence (Vo) or presence of inhibitor (Vi) were measured. Assuming competitive inhibition, and that unity is negligible compared Km /[S], […] (where [S], [I], and e respectively represent the total concentrations, of substrate, inhibitor and enzyme), the equilibrium constant (Ki) for dissociation of the inhibitor from the enzyme can be obtained from the dependence of Vo /Vi on [I] shown in equation 1.

Experiment [2] relates to human trypsin. In words: Rate of hydrolysis of p-nitroanilide substrate by trypsin. The settings on record: 405 nm, 1 mM CaCl2. On the procedure:
as §1

In experiment [3] the target is T1, human a-thrombin. The experiment is described as follows: Thrombin catalyzed hydrolysis of fluorogenic substrate. The settings on record: 500 nm (excitation 400 nm). On the procedure: as §1, §2

For the compound `Cc1nc(N)ccc1CNC(=O)Cn1c(C)cc(Sc2ccccc2)c(NS(C)(=O)=O)c1=O`, the Ki in experiment [1] was more than 10 nM. As to `CNCC(=O)N1CCC[C@H]1C(=O)N[C@@H](CCCNC(=N)N)C(=O)Nc1ccc([N+](=O)[O-])cc1` [sar-PR-pna, sarcosine-Pro-Arg-p-nitroanilide] (HELM PEPTIDE1{[Sar].P.R.[O=[N+]([O-])c1ccc(N[*:1])cc1]}$$$$V2.0), the Km in experiment [2] came to 59 µM. Regarding `N=C(N)NCCC[C@H](NC(=O)[C@@H]1CCCN1C(=O)CNC(=O)OCc1ccccc1)C(=O)Nc1ccc2c(C(F)(F)F)cc(=O)oc2c1` [Z-GPR-afc, Cbz-Gly-Pro-Arg-7-amino-4-trifluoromethylcoumarin] (HELM PEPTIDE1{[O=C(OCc1ccccc1)[*:2]].G.P.R.[O=c1cc(C(F)(F)F)c2ccc(N[*:1])cc2o1]}$$$$V2.0), the Km in experiment [3] stood at 27 µM. As for `Cc1cc(Sc2ccccc2)c(N)c(=O)n1CC(=O)NCc1cc(Cl)ccc1OCC(=O)NC1CC1`, the Ki in experiment [1] is less than 10 nM.

For orientation: Ki means a measure of affinity in units of concentration, obtained from inhibition or displacement. One may read the Km as the substrate concentration at which the rate is half of its maximum.
